Results taken from ChEMBL document CHEMBL1201862, “PubChem BioAssay data set” (2004).
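How tested: cells in 96-well plates exposed to compound for 48 hours at five concentrations. At the GI50, growth is halved.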 Active and inactive are the calls of the source. No stated cut-off is given here; in the data, active = GI50 up to about 1.1 µM and inactive = higher. Residues, ends and D or L forms follow the SMILES beside them. *: point of attachment. Boc = CC(C)(C)OC(=O)*

Experiments:
Experiment in all cases: NCI tumour cell line growth inhibition, 48 h
SK-MEL-5 = test system: SK-MEL-5
HCT-116 = test system: HCT-116
DU-145 = test system: DU-145
KM12 = test system: KM12
OVCAR-3 = test system: OVCAR-3
CCRF-CEM = test system: CCRF-CEM
HCC 2998 = test system: HCC 2998
TK-10 = test system: TK-10
U-251 = test system: U-251
SF-268 = test system: SF-268
SK-MEL-28 = test system: SK-MEL-28
SNB-19 = test system: SNB-19
T47D = test system: T47D
CAKI-1 = test system: CAKI-1
MOLT-4 = test system: MOLT-4
MDA-MB-231 = test system: MDA-MB-231
NCI-H23 = test system: NCI-H23
HL-60 = test system: HL-60
OVCAR-4 = test system: OVCAR-4
OVCAR-8 = test system: OVCAR-8

| SMILES | GI50 (SK-MEL-5) | GI50 (HCT-116) | GI50 (DU-145) | GI50 (KM12) | GI50 (OVCAR-3) | GI50 (CCRF-CEM) | GI50 (HCC 2998) | GI50 (TK-10) | GI50 (U-251) | GI50 (SF-268) | GI50 (SK-MEL-28) | GI50 (SNB-19) | GI50 (T47D) | GI50 (CAKI-1) | GI50 (MOLT-4) | GI50 (MDA-MB-231) | GI50 (NCI-H23) | GI50 (HL-60) | GI50 (OVCAR-4) | GI50 (OVCAR-8) |
| --- | --- | --- | --- | --- | --- | --- | --- | --- | --- | --- | --- | --- | --- | --- | --- | --- | --- | --- | --- | --- |
| COc1cc2oc(-c3ccc4c(c3)OCO4)c(OC)c(=O)c2c(OC)c1OC | 51.5 µM (inactive) | > 100 µM (inactive) | > 100 µM (inactive) | > 100 µM (inactive) | > 100 µM (inactive) | > 100 µM (inactive) | > 100 µM (inactive) | 32.8 µM (inactive) | 38.2 µM (inactive) | 27.9 µM (inactive) | > 100 µM (inactive) | 44.3 µM (inactive) | > 100 µM (inactive) | 19.1 µM (inactive) | > 100 µM (inactive) | > 100 µM (inactive) | 39.4 µM (inactive) | 83.2 µM (inactive) | > 100 µM (inactive) | 53.3 µM (inactive) |
| S=C(NCc1ccccc1)c1nc[nH]c1C(=S)NCc1ccccc1 | – | 5.64 µM (inactive) | 9.27 µM (inactive) | 6.07 µM (inactive) | 6 µM (inactive) | 2.96 µM (inactive) | 10 µM (inactive) | 10.5 µM (inactive) | 5.87 µM (inactive) | 6.19 µM (inactive) | 12.4 µM (inactive) | 5.4 µM (inactive) | 4.35 µM (inactive) | 5.47 µM (inactive) | 4.85 µM (inactive) | 10 µM (inactive) | 6.93 µM (inactive) | 7.69 µM (inactive) | 6.65 µM (inactive) | 4.49 µM (inactive) |
| COC(=O)c1c2c(cc3c1CC1(Cc4cc5c(cc4C1)CCC5)C3)CCC2 | > 100 µM (inactive) | > 100 µM (inactive) | > 100 µM (inactive) | – | > 100 µM (inactive) | > 100 µM (inactive) | > 100 µM (inactive) | > 100 µM (inactive) | > 100 µM (inactive) | > 100 µM (inactive) | > 100 µM (inactive) | > 100 µM (inactive) | > 100 µM (inactive) | > 100 µM (inactive) | > 100 µM (inactive) | > 100 µM (inactive) | > 100 µM (inactive) | > 100 µM (inactive) | > 100 µM (inactive) | > 100 µM (inactive) |
| COc1cc2c3c([nH]c2c(OC)c1OC)CCN(Cc1ccccc1)C3 | 18.9 µM (inactive) | 33.9 µM (inactive) | > 100 µM (inactive) | > 100 µM (inactive) | 64.6 µM (inactive) | 17.7 µM (inactive) | 17.9 µM (inactive) | 21.7 µM (inactive) | 31.8 µM (inactive) | 62.5 µM (inactive) | 21.6 µM (inactive) | 3.07 µM (inactive) | 24.8 µM (inactive) | 0.787 µM (active) | 25.1 µM (inactive) | 32.8 µM (inactive) | 33.1 µM (inactive) | 21.4 µM (inactive) | 64.7 µM (inactive) | > 100 µM (inactive) |
| O=C(O)C1C2C=CC(C2)C1c1ccccc1 (stereo unspecified) | > 100 µM (inactive) | > 100 µM (inactive) | > 100 µM (inactive) | > 100 µM (inactive) | > 100 µM (inactive) | > 100 µM (inactive) | > 100 µM (inactive) | > 100 µM (inactive) | > 100 µM (inactive) | > 100 µM (inactive) | > 100 µM (inactive) | > 100 µM (inactive) | > 100 µM (inactive) | > 100 µM (inactive) | > 100 µM (inactive) | > 100 µM (inactive) | > 100 µM (inactive) | > 100 µM (inactive) | – | > 100 µM (inactive) |
| COC1(OC)N=C(N)C2(C#N)C(C)CC(=O)N(N(C)C)C12C#N (stereo unspecified) | > 100 µM (inactive) | > 100 µM (inactive) | > 100 µM (inactive) | > 100 µM (inactive) | – | > 100 µM (inactive) | > 100 µM (inactive) | > 100 µM (inactive) | > 100 µM (inactive) | > 100 µM (inactive) | > 100 µM (inactive) | > 100 µM (inactive) | > 100 µM (inactive) | > 100 µM (inactive) | > 100 µM (inactive) | > 100 µM (inactive) | > 100 µM (inactive) | > 100 µM (inactive) | – | > 100 µM (inactive) |
| O=C1CCSc2c(cnc3ccccc23)N1 | > 100 µM (inactive) | > 100 µM (inactive) | > 100 µM (inactive) | > 100 µM (inactive) | 65.5 µM (inactive) | > 100 µM (inactive) | – | 71.6 µM (inactive) | > 100 µM (inactive) | > 100 µM (inactive) | > 100 µM (inactive) | – | > 100 µM (inactive) | 56.8 µM (inactive) | > 100 µM (inactive) | > 100 µM (inactive) | > 100 µM (inactive) | > 100 µM (inactive) | 67.3 µM (inactive) | > 100 µM (inactive) |
| COc1ccc2c(c1)C1Oc3ccccc3CC1CO2 (stereo unspecified) | 32.6 µM (inactive) | 44.7 µM (inactive) | > 100 µM (inactive) | 37.2 µM (inactive) | 57.7 µM (inactive) | > 100 µM (inactive) | 19.7 µM (inactive) | 73.1 µM (inactive) | 91.8 µM (inactive) | > 100 µM (inactive) | – | > 100 µM (inactive) | 26.2 µM (inactive) | 56.8 µM (inactive) | 21.5 µM (inactive) | 16.8 µM (inactive) | > 100 µM (inactive) | 21.2 µM (inactive) | 43.9 µM (inactive) | 83.9 µM (inactive) |
| Cn1ccnc1Oc1ccc(Cl)cc1 | 14.1 µM (inactive) | 12 µM (inactive) | 15.9 µM (inactive) | – | – | – | 4.57 µM (inactive) | 18.7 µM (inactive) | 17.9 µM (inactive) | 28.5 µM (inactive) | 14.4 µM (inactive) | 33 µM (inactive) | 2.18 µM (inactive) | – | 2.38 µM (inactive) | 14.8 µM (inactive) | 17.5 µM (inactive) | 0.631 µM (active) | 6.12 µM (inactive) | 7.69 µM (inactive) |
| Cc1oc2c(cc(O)c3cc(O)ccc32)c2cccc1-2 | > 100 µM (inactive) | > 100 µM (inactive) | > 100 µM (inactive) | > 100 µM (inactive) | > 100 µM (inactive) | 43.5 µM (inactive) | > 100 µM (inactive) | > 100 µM (inactive) | > 100 µM (inactive) | > 100 µM (inactive) | > 100 µM (inactive) | > 100 µM (inactive) | 42.1 µM (inactive) | > 100 µM (inactive) | > 100 µM (inactive) | > 100 µM (inactive) | > 100 µM (inactive) | > 100 µM (inactive) | – | > 100 µM (inactive) |
| Cc1ccc(C(=O)N/N=C(\N=N\c2cccc(Cl)c2)c2ccc(N(CCC#N)CCC#N)cc2C)cc1 | > 100 µM (inactive) | > 100 µM (inactive) | > 100 µM (inactive) | > 100 µM (inactive) | 93.3 µM (inactive) | 97.1 µM (inactive) | > 100 µM (inactive) | > 100 µM (inactive) | > 100 µM (inactive) | – | > 100 µM (inactive) | > 100 µM (inactive) | 69 µM (inactive) | > 100 µM (inactive) | 41.5 µM (inactive) | > 100 µM (inactive) | > 100 µM (inactive) | 56.9 µM (inactive) | > 100 µM (inactive) | 79.4 µM (inactive) |
| COc1ccc(C(OCC2OC(n3ccc(NC(=O)c4ccccc4)nc3=O)C(O)C2O)(c2ccccc2)c2ccccc2)cc1 (stereo unspecified) | 1.91 µM (inactive) | 1.75 µM (inactive) | 3.37 µM (inactive) | 21.1 µM (inactive) | 1.69 µM (inactive) | 2.26 µM (inactive) | 3.4 µM (inactive) | – | 1.92 µM (inactive) | 5.18 µM (inactive) | 2.72 µM (inactive) | 3.44 µM (inactive) | 3.54 µM (inactive) | 2.93 µM (inactive) | 2.1 µM (inactive) | 2.13 µM (inactive) | 1.32 µM (inactive) | 2.24 µM (inactive) | 2.67 µM (inactive) | 1.78 µM (inactive) |
| CN(C)Cc1cc(/C=C/C(=O)c2ccc(Br)cc2)cc(CN(C)C)c1O | 19.6 µM (inactive) | 14.8 µM (inactive) | 15.7 µM (inactive) | 13.4 µM (inactive) | 20.8 µM (inactive) | 4.06 µM (inactive) | 14 µM (inactive) | 12.8 µM (inactive) | – | 14.8 µM (inactive) | 17.1 µM (inactive) | 20.3 µM (inactive) | 18.5 µM (inactive) | 8.47 µM (inactive) | 9.95 µM (inactive) | 14.7 µM (inactive) | – | 6.84 µM (inactive) | – | 29.2 µM (inactive) |
| COC(=O)C(Cc1c[nH]c2ccccc12)NC(=O)C(Cc1c[nH]c2ccccc12)NC(=O)C(Cc1c[nH]c2ccccc12)NC(=O)C(Cc1c[nH]c2ccccc12)NC(=O)C(Cc1c[nH]c2ccccc12)NC(=O)C(Cc1c[nH]c2ccccc12)NC(=O)OC(C)(C)C (stereo unspecified) (Boc-WWWWWW-OMe; configuration not given here) | 19.3 µM (inactive) | 37.3 µM (inactive) | 32.9 µM (inactive) | – | > 100 µM (inactive) | > 100 µM (inactive) | > 100 µM (inactive) | 31.2 µM (inactive) | 54.7 µM (inactive) | 50.4 µM (inactive) | 14.4 µM (inactive) | 47.3 µM (inactive) | 22.2 µM (inactive) | > 100 µM (inactive) | 63.4 µM (inactive) | > 100 µM (inactive) | 28.5 µM (inactive) | > 100 µM (inactive) | > 100 µM (inactive) | 92.9 µM (inactive) |
